Results on 1 compound are retold here after US12594255B2, “Lipids with odd number of carbon atoms and their use as pharmaceutical composition or nutritional supplement” (SunRegen Healthcare AG, priority 2016, dated 2026).

By EC50 is commonly meant the concentration giving half of the maximal effect. As a reminder, the viability is a read-out of living cells in per cent, often relative to untreated cells.

Format in all cases: cell-based
Test [1] relates to mouse primary cortical neurons challenged with Aβ1-42 oligomers (AβO). Kind of test: AβO-induced neurotoxicity, 48-h pre-incubation with test item, MTT assay. As to conditions: 48 h pre-incubation, then 1 μM AβO 24 h. Here is the method: Mouse primary cortical neurons were pre-incubated for 48 h with vehicle, 0.05 μM DHA (used as positive control) or different concentrations of Compound C. Then, cortical neurons were treated for 24 h with vehicle (FIG. 1 left) or 1 μM AβO ([…]) and cell viability was determined using the MTT assay (n=3 determinations per condition, 1 independent experiment), Data are represented as % of vehicle control (Mean*SD). […]
(§1) Cortical neurons from embryonic day 16-17 are prepared from C57BL6/J mouse fetuses. In brief, dissociated cortical cells were plated (50.000 cells/well) in 48-well plates pre-coated with 1.5 μg/mL polyornithine (Sigma). Cells were cultured in a chemically defined Dulbecco's modified eagle's/F12 medium free of serum and supplemented with hormones, proteins and salts. Cultures were kept at 35° C. in a humidified 6% CO2 atmosphere. Mouse cortical neurons were exposed for 24 h to 1.0 μM AβO after a 48-h pre-incubation with vehicle or different concentrations of Compound C. The AβO-induced neurotoxicity was evaluated using the MTT assay.
All treatments were done in triplicates in 48-well plates. Cells were incubated with vehicle or 1 μM AβO in the absence or presence of different lipids at the indicated final concentrations) added at 48 hours before ADO. Cells were incubated with AβO for 24 h in a final volume of 140 μL per well.
For positive controls, cells are treated similarly (48 hours before AβO) in the presence of 0.05 μM DHA.
Following AβO-treatment, cell viability was measured using the MTT assay. Briefly, cells were incubated at 35° C. for 1 h with MTT (Sigma, Cat #M2128-10G. Lot #MKBH7489V). For that purpose, 14 μL of 5 mg/mL MITT (solubilized in PBS) were added in each well. After incubation, medium was removed and cells were lyzed with 150 μL DMSO for 10 minutes and protected from light. After complete solubilization of formazan, absorbance at 570 nm was recorded.
as §1, with “cells are” for “cells were”, “Cells are” for “Cells were”, “Cultures are” for “Cultures were”, “of herb B extracts.” for “of Compound C.”, “assay. […]” for “assay.”
For orientation: Tetrazolium dyes change colour on reduction, which living cells bring about.

For test [2] the test system is unchanged. The test can be described thus: AβO-induced neurotoxicity, test item added concomitantly (T0) or 3 h (T3) or 6 h (T6) after AβO, MTT assay. As to conditions: for % of neuroprotection and anti-apoptotic effects / viability at 1 µM: 1000 nM. The method, then: Mouse primary cortical neurons were treated at 0 h (T0) with vehicle or 1 μM AβO, Different concentrations of Compound C or HNG (0.1 μM, used as positive control) were added concomitantly to AβO at 0 h (T0)), 3 h (T3) or 6 h (T6) after AβO. Then, cortical neurons were incubated for 24 h and cell viability was determined using the MTT assay (n=3 determinations per condition, 1 independent experiment). Data are represented as % of vehicle control (Mean±SD). […]
The aim of this study is to determine whether Compound C might present neuroprotective, anti-apoptotic and neuro-rescuing effects in in vitro AβO induced neuron death models. For that purpose, the neuro-protective effects of compound C at six concentrations were investigated using mouse primary cortical neurons challenged with Aβ1-42 oligomers (AβO) Compounds were added at different time points (concomitantly T0 with AβO and T3, or T6 after AβO) with the aim to identify rescuing effects or anti-apoptotic effects.
Cortical neurons from embryonic day 16-17 are prepared from C57Bl6/J mouse fetuses, as described in Example I-1.
Mouse cortical neurons were exposed for 24 h to 1.0 μM AβO. The AβO-induced neurotoxicity was evaluated using the MTT assay. […] (FIG. 4)
The percentage of neuroprotection and anti-apoptosis effects was defined as; (neuron viability of compound C group−neuron viability of toxin treated group)/(100−neuron viability of toxin treated group)×100%. The % of neuroprotection and anti-apoptotic effects of compound C at 1000 nM is 88.7%, 52.0%, 22.3%, at T0, T3, or T6, respectively. (FIG. 4) […]

The subject of test [3] is mouse primary cortical neurons challenged with different types toxins. To be noted: T3.
The test system of test [4] is age-induced protein aggregates in Saccharomyces cerevisiae. The test can be described thus: Age-induced protein aggregates (Hsp104-GFP foci) in old yeast cells. To be noted: for proportion of cells with a Hsp104-GFP focus: vehicle only 58.7±10.6%. Here is the method:
FIG. 9a: Representative images of a young cell, or old cells untreated or treated with Herb B (10 μg/ml) or Compound C (30 μM). Upper panels are maximum projection of z-series stacks of cells stained with fluorescent brightener 28 and imaged in the DAPI channel to reveal bud scars. Lower panel are single focal planes images of the same cells that express Hsp104-GFP and imaged in the GFP channel. Arrow point at an Hsp104-GFP focus.
FIG. 9c: Percentage of cells with an Hsp104-GFP focus. Cells were imaged with the same illumination conditions. All old cells imaged were included (between 75 and 94 cells). All focal planes were examined Mean±SD. P values are adjusted p values from an ANOVA comparing to vehicle only.
FIG. 9d: Average fluorescence intensity of Hsp104-GFP in the cell as a proxy for Hsp104-GFP concentration. Mean±SD. P values are adjusted p values obtained from ANOVA comparing to vehicle only
To test an effect on the formation of age-induced Hsp104-GFP foci, old cells were obtained and cultivated in the presence of Compound C (1 μM, 10 μM and 30 μM). Herb B (10 μg/ml), ethanol (0.3%, vehicle only) or in the absence of any treatment. Untreated young cells were obtained through a simple exponential growth.
Age was determined by staining bud scars with fluorescent brightener 28. […] (FIG. 9b)

Like-named read-outs stand apart in the source and are kept apart here.

In test [1] (Compound C 320 nM), `CCCCCCCCCCCCCCC(=O)OCC(COC(=O)CCCCCCCCCCCCCC)OC(=O)CCCCCCCCCCCCCC` [Compound C, tripentadecanoin] had a maximal neuroprotective effect of 100%. The EC50 in test [1] (Mus musculus, Primary cortical neuron, expected around, read-out: EC50 effect (neuroprotection)) is ~0.066 µM. For the same compound, the viability at 0.32 µM in test [1] (Mus musculus, Primary cortical neuron, Compound C 320 nM, read-out: cell viability) was found to be 112 ± 1.5%; in test [2] (Mus musculus, Primary cortical neuron, 320 nM, added 3 h after AβO (T3)), 65.3 ± 2.6%. In addition, the results for the “% of neuroprotection and anti-apoptotic effects” value in test [2] (T0), in test [2] (T3) and in test [2] (T6) were 88.7%, 52.0% and 22.3%, respectively. The viability at 1 µM in test [2] (Mus musculus, Primary cortical neuron, added 3 h after AβO (T3)) was determined as 76.6 ± 2.9%; in test [2] (Mus musculus, Primary cortical neuron, added 6 h after AβO (T6)), 62.4 ± 3.5%; in test [2] (Mus musculus, Primary cortical neuron, added concomitantly to AβO (T0)), 94.5 ± 4.6%. Further, the “anti-apoptotic and neuroprotective effects” value in test [3] (Aβ1-42 fibrils, 10000 nM) turned out to be 223%; in test [3] (Aβ25-35 fibrils, 10000 nM) it was 32.1%; in test [3] (alpha-synuclein fibrils, 1000 nM), 34.0%; in test [3] (human alpha-synuclein oligomer-induced toxicity, 10000 nM), 45.8%; in test [3] (human amylin fibrils, 1000 nM) it was 45.3%; in test [3] (human amylin fibrils, 10000 nM), 52.6%. In addition, the “anti-apoptotic and neuroprotective effects” value stood at 30.8% in test [3] (human amylin oligomers, 1000 nM); 37.3% in test [3] (human amylin oligomers, 10000 nM); 46.8% in test [3] (human tau oligomer-induced toxicity, 10000 nM); 23.1% in test [3] (tau fibril-induced toxicity, 10000 nM). The “proportion of cells with a Hsp104-GFP focus” value came out at 46.2±4.8% in test [4] (1 μM, not statistically significant); 37.5±6.0% in test [4] (10 μM); 34.3±13.7% in test [4] (30 μM). In test [4] (compound C 1, 10, 30 μM, herb B 10 μg/ml), the “intensity of Hsp104-GFP (increase in old vs young cells)” value is listed as “reduced the extent of this increase”.
